Read-outs that look alike come from different tables or passages of the source.

Holding throughout (assay type): cell-based
One assay has as its target NF-κB. The assay is described as follows: NF-κB luciferase reporter assay in RAW 264.7 macrophages. Conditions: for IC50: Mus musculus. The protocol:
RAW 264.7 cells stably expressing a 3×NFkB response element-drive luciferase reporter were seeded into 96 well plates in sera-free medium (Optimem) 18 hours prior to compound application. Compounds of the invention were prepared by first making 100 mM stock solutions in EtOH. […] Cells were then stimulated with 200 ng/ml LPS or vehicle control for 3 hours in the presence of the compounds of the invention. A set of six vehicles was left unstimulated with LPS in order to measure the assay floor. AlamarBlue viability dye (Invitrogen) was added to cells simultaneously with the delivery of LPS (final AlamarBlue concentration of 10%). After the 3 h incubation period with LPS, cell viability was measured by reading fluorescence (excitation 550 nm, emission 595 nm) with a Perkin Elmer Victor V plate reader. Then cell media was aspirated from each well. Luciferase signal was then developed by addition of the Britelite Plus reagent (Perkin Elmer). Luciferase activity was measured with the Perkin Elmer Victor V plate reader. NE-κB activity was expressed as a percent of the vehicle control wells (stimulated with LPS). Compounds were tested at 6 dose point titrations in triplicate to determine IC50 values.
For orientation: In a reporter assay the amount or activity of a reporter protein is the signal.

The test system of the next assay is HIV-1IIIB strain. The assay is described as follows: HIV-1 cytoprotection assay (CEM-SS cells, MTS dye reduction). The protocol:
Cytoprotection assays are commonly used for evaluating the antiviral efficacy of test compounds against a variety of viruses in different cell lines. […] Briefly, virus and cells are mixed in the presence of test compound and incubated for 6 days. […] Each assay plate contains cell control wells (cells only), virus control wells (cells plus virus), compound toxicity control wells (cells plus compound only), compound colorimetric control wells (compound only), as well as experimental wells (compound plus cells plus virus). Cytoprotection and compound cytotoxicity are assessed by MTS (CellTiter®96 Reagent, Promega, Madison Wis.) dye reduction. […] Each assay includes the HIV reverse transcriptase inhibitor AZT as a positive control.
CEM-SS cells were obtained from the NIH AIDS Research and Reference Reagent Program and are routinely passaged in T-75 flasks using standard tissue culture techniques based on the specifications provided by the supplier. On the day preceding the assay, the cells are split 1:2 to assure they are in an exponential growth phase at the time of infection. Total cell number and percent viability determinations are performed using a hemacytometer and trypan blue exclusion. […] The cells are re-suspended at 5×10^4 cells/mL in tissue culture medium and added to the drug-containing 96-well microtiter plates in a volume of 50 μl.
The viruses used for this assay are CXCR4-tropic laboratory virus strains. The most commonly used strains are HIV-1RF and HIV-1IIIB (each obtained from the NIH AIDS Research and Reference Reagent Program). For each assay, a pre-titered aliquot of virus is removed from the freezer (−80° C.) and allowed to thaw slowly to room temperature in a biological safety cabinet. The virus is re-suspended and diluted into tissue culture medium such that the amount of virus added to each well in a volume of 50 μl is the amount determined to give between 85 to 95% cell killing at 6 days post-infection.
Each plate contains cell control wells (cells only), virus control wells (cells plus virus), drug cytotoxicity wells (cells plus drug only), drug colorimetric control wells (drug only), background control wells (media only), as well as experimental wells (drug plus cells plus virus). Samples are evaluated for antiviral efficacy with triplicate measurements using 6 concentrations at half-log dilutions (12 concentrations can also be performed) in order to determine IC50 values and with duplicate measurements to determine cellular cytotoxicity, if detectable.
100% EtOH is added to the compounds of the invention such that the EtOH stock concentration is 50 mM. […] (VWR Ultrasonics Cleaner, Model #B8500A-DTH with “Sonics Power” set to HI); e) The 1:2 serial dilutions of the 1 mM 10× stock solution with FBS/2% EtOH are prepared such that the concentrations of the 10× stock solutions are 1 mM, 0.5 mM, 0.25 mM, etc., in FBS with 2% EtOH. Medium is aspirated off cells and replaced with serum free medium.

The next assay concerns HBV. Nature of the assay: HBV assay, extracellular HBV DNA in HepG2 2.2.15 cells. Conditions: Hepatitis B virus, read-out: EC90 against HBV. The protocol:
Extracellular HBV DNA analysis was carried out using the protocols outlined in Innaimo et al, Antimicrobial Agents and Chemotherapy 1997, 41, p. 1444-1448 and Korba and Milman Antiviral Research 1991, 15, p. 217-228. HepG2 2.2.15 cells were maintained in RPMI 1640 supplemented with 2 mM L-glutamine, 50 U of penicillin per mL, 50 μg of streptomycin per mL, 500 μg of G418 per mL, and 5% fetal bovine serum. Stock solutions of the test compounds were prepared according to the procedures outlined in example 3. HepG2 2.2.15 cells were plated at a density of 5×10^5 cells per well on 12-well Biocoat collagen-coated plates (Collaborative Biosciences, Beford, Mass.) and were maintained in a confluent state for 2 to 3 days before being overlaid with 1 mL of medium spiked with the antiviral compound. Compound-containing medium was changed daily for 9 days. On day 10, the media were collected and clarified by pelleting the cellular debris with a 5-min microcentrifuge spin at 16,000×g. Supernatants were processed for HBV DNA by the alkaline lysis method. Released HBV DNA was immobilized on a Magnagraph nylon membrane (Micron Separatations, Inc., Westborough, Mass.) by sing a dot blot manifold full-length HBV genome template excised from plasmid pTHBV-1 (American Type Culture Collection, Rockville, Md.) and ^32P-radiolabeled to a specific activity of 2×10^9 cpm/μg by using a random primer kit (Life Technologies, Grand Island, N.Y.). Quantification was performed on a Storm 860 phosphorimager (Molecular Dynamics, Sunnyvale, Calif.). All drug concentrations were tested in duplicate or triplicate, with antiviral effects being scored as reductions in the amount of HBV DNA present in the medium relative to that in untreated controls after the 10-day treatment period. Using the assay, the following EC90 values against HBV were obtained: […]

The mark [1] stands for this setting: RAW 264.7 reporter cells, 200 ng/ml LPS, 3 hours.
The mark [2] stands for this setting: Human immunodeficiency virus 1, IIIB, CEM-SS, 144 h, read-out: IC50 HIV-1IIIB strain (nM).
Setting [3] is: RAW264.7, RAW 264.7 reporter cells, 200 ng/ml LPS, 3 hours, read-out: NF-kB inhibitory activity IC50.
[4] abbreviates: CEM-SS cells, HIV-1 IIIB strain, 6 days, MTS.
Where [5] appears, read: RAW264.7, 3 h, read-out: NF-kB inhibitory activity IC50 μM.

The term IC50 denotes the concentration needed to halve the response being measured. `CC/C=C\C/C=C\C/C=C\C/C=C\C/C=C\C/C=C\CCC(=O)NCCNP(=O)(OC[C@H]1O[C@H](n2cc(C)c(=O)[nH]c2=O)C[C@@H]1N=[N+]=[N-])Oc1ccccc1` (stereo partly drawn) [II-25, ((2S,3S,5S)-3-azido-5-(5-methyl-2,4-dioxo-3,4-dihydropyrimidin-1(2H)-yl)tetrahydrofuran-2-yl)methyl phenyl (2-((4Z,7Z,10Z,13Z,16Z,19Z)-docosa-4,7,10,13,16,19-hexaenamido)ethyl)phosphoramidate]: the “NF-kB inhibitory activity IC50 μM” value at NF-κB (setting [1]) is recorded as “+ +”. Also, the IC50 in the assay with HIV-1IIIB strain (setting [2]) is < 100 nM.

A word on the EC90: it is the point of the concentration-response curve where the effect stands at 90%. As for `CC/C=C\C/C=C\C/C=C\C/C=C\C/C=C\C/C=C\CCC(=O)NCCNP(=O)(OC[C@@H]1O[C@H](n2ccc(N)nc2=O)CS1)Oc1ccccc1` (stereo partly drawn) [II-67, ((2R,5S)-5-(4-amino-2-oxopyrimidin-1(2H)-yl)-1,3-oxathiolan-2-yl)methyl phenyl (2-((4Z,7Z,10Z,13Z,16Z,19Z)-docosa-4,7,10,13,16,19-hexaenamido)ethyl)phosphoramidate], at NF-κB (setting [1]), the “NF-kB inhibitory activity IC50 μM” value is listed as “+ +”. For the same molecule, in the assay with HIV-1IIIB strain (setting [2]), the IC50 is < 100 nM. For the same molecule, the EC90 with HBV (HepG2 2.2.15, 240 h) was 75 nM.

As for `CC/C=C\C/C=C\C/C=C\C/C=C\C/C=C\C/C=C\CCC(=O)Nc1ccn([C@@H]2CS[C@H](CO)O2)c(=O)n1` [Example V-18, (4Z,7Z,10Z,13Z,16Z,19Z)—N-(1-((2R,5S)-2-(hydroxymethyl)-1,3-oxathiolan-5-yl)-2-oxo-1,2-dihydropyrimidin-4-yl)docosa-4,7,10,13,16,19-hexaenamide], the IC50 with NF-κB (setting [3]) was > 200 µM. In the assay on HIV-1IIIB strain (setting [4]), the “IC50 HIV-1IIIB strain (nM)” value was “+ ++”. The EC90 with HBV (240 h, HepG2 2.2.15 cells, extracellular HBV DNA, 10-day treatment) was 81 nM.

On to `CC/C=C\C/C=C\C/C=C\C/C=C\C/C=C\C/C=C\CCC(=O)NCCNC(=O)OC[C@@H]1O[C@H](n2ccc(N)nc2=O)CS1` [Example V-21, ((2R,5S)-5-(4-amino-2-oxopyrimidin-1(2H)-yl)-1,3-oxathiolan-2-yl)methyl (2-((4Z,7Z,10Z,13Z,16Z,19Z)-docosa-4,7,10,13,16,19-hexaenamido)ethyl)carbamate], for which the IC50 with NF-κB (setting [5]) was 50 to 200 µM. Besides, the “IC50 HIV-1IIIB strain (nM)” value in the assay on HIV-1IIIB strain (setting [4]) is “+ ++”. Also, in the assay with HBV (HepG2 2.2.15, 240 h), the EC90 came to 79 nM.

`CC/C=C\C/C=C\C/C=C\C/C=C\C/C=C\C/C=C\CCC(=O)Nc1ccc(S(=O)(=O)N(CC(C)C)C[C@@H](O)[C@H](Cc2ccccc2)NC(=O)O[C@H]2CO[C@H]3OCC[C@H]32)cc1` [VII-1, (3R,3aS,6aR)-hexahydrofuro[2,3-b]furan-3-yl ((2S,3R)-4-(4-((4Z,7Z,10Z,13Z,16Z,19Z)-docosa-4,7,10,13,16,19-hexaenamido)-N-isobutylphenylsulfonamido)-3-hydroxy-1-phenylbutan-2-yl)carbamate]: in the assay on NF-κB (setting [5]), the IC50 lay within 50 to 200 µM. The “IC50 HIV-1IIIB strain (nM)” value with HIV-1IIIB strain (setting [4]) is listed as “+ ++”.

On to `CC/C=C\C/C=C\C/C=C\C/C=C\C/C=C\C/C=C\CCC(=O)NCCNC(=O)OC[C@H]1O[C@H](n2cc(C)c(=O)[nH]c2=O)C[C@@H]1N=[N+]=[N-]` [Example V-5, ((2S,3S,5S)-3-azido-5-(5-methyl-2,4-dioxo-3,4-dihydropyrimidin-1(2H)-yl)tetrahydrofuran-2-yl)methyl (2-((4Z,7Z,10Z,13Z,16Z,19Z)-docosa-4,7,10,13,16,19-hexaenamido)ethyl)carbamate], for which the “NF-kB inhibitory activity IC50 μM” value on NF-κB (setting [1]) is reported as “+ +”. Moreover, in the assay with HIV-1IIIB strain (Human immunodeficiency virus 1, 144 h, CEM-SS cells, HIV-1 IIIB strain, 6 days, MTS, read-out: IC50 HIV-1IIIB strain), the IC50 is > 100 nM.

Take `CC/C=C\C/C=C\C/C=C\C/C=C\C/C=C\CCCC(=O)NCCNP(=O)(OC)OC[C@H]1O[C@H](n2cc(C)c(=O)[nH]c2=O)C[C@@H]1N=[N+]=[N-]` (stereo partly drawn) [II-30, ((2S,3S,5S)-3-azido-5-(5-methyl-2,4-dioxo-3,4-dihydropyrimidin-1(2H)-yl)tetrahydrofuran-2-yl)methyl methyl (2-((5Z,8Z,11Z,14Z,17Z)-icosa-5,8,11,14,17-pentaenamido)ethyl)phosphoramidate]: the “NF-kB inhibitory activity IC50 μM” value on NF-κB (setting [1]) is reported as “+ +”. The IC50 in the assay on HIV-1IIIB strain (setting [2]) was > 100 nM.

Regarding `C=C1[C@H](COP(=O)(NCCNC(=O)CCC/C=C\C/C=C\C/C=C\C/C=C\C/C=C\CC)OC)[C@@H](O)C[C@@H]1n1cnc2c(=O)nc(N)[nH]c21` (stereo partly drawn) [II-48, ((1R,3S,5S)-3-(2-amino-6-oxo-3H-purin-9(6H)-yl)-5-hydroxy-2-methylenecyclopentyl)methyl methyl (2-((5Z,8Z,11Z,14Z,17Z)-icosa-5,8,11,14,17-pentaenamido)ethyl)phosphoramidate], the IC50 in the assay with NF-κB (setting [5]) was in the range of 50 to 200 µM. Further, the EC90 in the assay with HBV (HepG2 2.2.15, 240 h) was determined as 7 nM.

Take `CC/C=C\C/C=C\C/C=C\C/C=C\C/C=C\CCCC(=O)NCCNP(=O)(OC[C@@H]1OC(n2ccc(N)nc2=O)CS1)Oc1ccccc1` (stereo partly drawn) [II-68]: in the assay with NF-κB (setting [5]), the IC50 lay in the range of 50 to 200 µM. Besides, the EC90 in the assay with HBV (HepG2 2.2.15, 240 h) came to 82 nM.

As for `CC/C=C\C/C=C\C/C=C\C/C=C\C/C=C\CCCC(=O)Nc1ccc(S(=O)(=O)N(CC(C)C)C[C@@H](O)[C@H](Cc2ccccc2)NC(=O)O[C@H]2CO[C@H]3OCC[C@H]32)cc1` [VII-2, (3R,3aS,6aR)-hexahydrofuro[2,3-b]furan-3-yl((2S,3R)-3-hydroxy-4-(4-((5Z,8Z,11Z,14Z,17Z)-icosa-5,8,11,14,17-pentaenamido)-N-isobutylphenylsulfonamido)-1-phenylbutan-2-yl)carbamate], in the assay with NF-κB (setting [3]), the IC50 is < 50 µM. Also, in the assay with HIV-1IIIB strain (setting [4]), the “IC50 HIV-1IIIB strain (nM)” value is on record as “+ ++”.

For `C=C1[C@H](COP(=O)(NCCNC(=O)CC/C=C\C/C=C\C/C=C\C/C=C\C/C=C\C/C=C\CC)OC)[C@@H](O)C[C@@H]1n1cnc2c(=O)nc(N)[nH]c21` (stereo partly drawn) [II-46, ((1R,3S,5S)-3-(2-amino-6-oxo-3H-purin-9(6H)-yl)-5-hydroxy-2-methylenecyclopentyl)methyl methyl (2-((4Z,7Z,10Z,13Z,16Z,19Z)-docosa-4,7,10,13,16,19-hexaenamido)ethyl)phosphoramidate], in the assay on HBV (HepG2 2.2.15, 240 h), the EC90 turned out to be 7 nM.
